PubChem BioAssay (NCI)
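48-hour exposure; five concentrations; linearly interpolated endpoints. GI50: concentration for 50% inhibition of growth. TGI: total growth inhibition.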

What was measured:
Assay in all cases: growth of human tumour cells (NCI), 48 h; in the data active means GI50 below about 0.43 µM; inactive means the rest
[1] = tested on: SNB-19 CNS
[2] = tested on: SK-MEL-5 melanoma
[3] = tested on: DU-145 prostate
[4] = tested on: EKVX NSCLC
[5] = tested on: NCI-H23 lung
[6] = tested on: TK-10 renal
[7] = tested on: HCC-2998 colon
[8] = tested on: LOX IMVI melanoma
[9] = tested on: SW-620 colon
[10] = tested on: OVCAR-8 ovarian
[11] = tested on: UACC-62 melanoma
[12] = tested on: MDA-MB-231 breast
[13] = tested on: RXF 393 renal
[14] = tested on: K-562 leukemia
[15] = tested on: 786-0 renal
[16] = tested on: MCF7 breast
[17] = tested on: M14 melanoma
[18] = tested on: T-47D breast
[19] = tested on: ACHN renal
[20] = tested on: BT-549 breast
[21] = tested on: A549 NSCLC
[22] = tested on: A498 renal
[23] = tested on: UO-31 renal
[24] = tested on: RPMI-8226 leukemia
[25] = tested on: NCI/ADR-RES ovarian
[26] = tested on: HCT-15 colon
[27] = tested on: COLO 205 colon
[28] = tested on: SF-295 CNS
[29] = tested on: SK-OV-3 ovarian
[30] = tested on: IGROV1 ovarian
[31] = tested on: HCT-116 colon
[32] = tested on: SN12C renal
[33] = tested on: SK-MEL-28 melanoma
[34] = tested on: U251 CNS
[35] = tested on: HOP-62 NSCLC
[36] = tested on: OVCAR-3 ovarian
[37] = tested on: PC-3 prostate
[38] = tested on: SF-539 CNS
[39] = tested on: CCRF-CEM leukemia
[40] = tested on: OVCAR-5 ovarian
[41] = tested on: HS 578T breast
[42] = tested on: MALME-3M melanoma
[43] = tested on: CAKI-1 renal
[44] = tested on: HOP-92 NSCLC
[45] = tested on: SK-MEL-2 melanoma
[46] = tested on: MDA-MB-435
[47] = tested on: NCI-H226 lung
[48] = tested on: UACC-257 melanoma
[49] = tested on: HL-60(TB) leukemia
[50] = tested on: NCI-H460 lung
[51] = tested on: OVCAR-4 ovarian
[52] = tested on: SNB-75 CNS
[53] = tested on: KM12 colon
[54] = tested on: SF-268 CNS
[55] = tested on: NCI-H522 lung
[56] = tested on: HT29 colon

Nc1ncnc2c1ncn2Cc1ccc(CCl)cc1
34.4 µM: TGI [28]
30.2 µM: TGI [9]
62.7 µM: TGI [16]
35.1 µM: TGI [21]
43.4 µM: TGI [42]
29 µM: TGI [7]
31.7 µM: TGI [36]
40.8 µM: TGI [29]
37.2 µM: TGI [53]
41.5 µM: TGI [26]
58.1 µM: TGI [41]
51.9 µM: TGI [55]
66.5 µM: TGI [30]
35.2 µM: TGI [40]
34.9 µM: TGI [4]
37.8 µM: TGI [1]
51.7 µM: TGI [8]
41.1 µM: TGI [50]
46.8 µM: TGI [23]
62.6 µM: TGI [52]
38.3 µM: TGI [51]
28.7 µM: TGI [20]
40.6 µM: TGI [34]
50.7 µM: TGI [3]
34.6 µM: TGI [11]
32.9 µM: TGI [46]
31.5 µM: TGI [10]
65.7 µM: TGI [6]
35.3 µM: TGI [47]
31.9 µM: TGI [22]
28.9 µM: TGI [43]
38.4 µM: TGI [38]
31.4 µM: TGI [27]
51.6 µM: TGI [44]
60.5 µM: TGI [17]
37.6 µM: TGI [5]
73.1 µM: TGI [37]
35.6 µM: TGI [32]
73.6 µM: TGI [15]
28.5 µM: TGI [2]
35.8 µM: TGI [12]
97.5 µM: TGI [45]
> 100 µM: TGI [14] | TGI [24] | TGI [31] | TGI [33] | TGI [35] | TGI [39] | TGI [49]
inactive: GI50 [1] 16 µM | GI50 [2] 15.2 µM | GI50 [3] 19 µM | GI50 [4] 17 µM | GI50 [5] 17.5 µM | GI50 [6] 18.1 µM | GI50 [7] 14.2 µM | GI50 [8] 23.5 µM | GI50 [9] 12.8 µM | GI50 [10] 15.5 µM | GI50 [11] 19.6 µM | GI50 [12] 17.5 µM | GI50 [13] 20.3 µM | GI50 [14] 14.9 µM | GI50 [15] 27.5 µM | GI50 [16] 11.7 µM | GI50 [17] 25.2 µM | GI50 [18] 8 µM | GI50 [19] 19.4 µM | GI50 [20] 14.3 µM | GI50 [21] 17.1 µM | GI50 [22] 12.6 µM | GI50 [23] 22.3 µM | GI50 [24] 15.1 µM | GI50 [25] 18.7 µM | GI50 [26] 21.9 µM | GI50 [27] 14.2 µM | GI50 [28] 15.7 µM | GI50 [29] 19.7 µM | GI50 [30] 25.8 µM | GI50 [31] 36.2 µM | GI50 [32] 21.2 µM | GI50 [33] 21.7 µM | GI50 [34] 21.9 µM | GI50 [35] 34.5 µM | GI50 [36] 14.3 µM | GI50 [37] 20.8 µM | GI50 [38] 16.7 µM | GI50 [39] 24.3 µM | GI50 [40] 18.8 µM | GI50 [41] 25.9 µM | GI50 [42] 19 µM | GI50 [43] 14.3 µM | GI50 [44] 19 µM | GI50 [45] 32.6 µM | GI50 [46] 15.4 µM | GI50 [47] 20.6 µM | GI50 [48] 17.9 µM | GI50 [49] 54.7 µM | GI50 [50] 17 µM | GI50 [51] 19.4 µM | GI50 [52] 22.3 µM | GI50 [53] 13.6 µM | GI50 [54] 21.8 µM | GI50 [55] 24 µM
62.2 µM: TGI [13]
57.9 µM: TGI [54]
34.8 µM: TGI [19] | TGI [48]
27.4 µM: TGI [18]
44.5 µM: TGI [25]

Cc1cc(C2CC(O)C(CO)O2)c(Br)cc1Br (stereo not drawn)
> 100 µM: TGI [1] | TGI [2] | TGI [3] | TGI [4] | TGI [5] | TGI [6] | TGI [7] | TGI [8] | TGI [9] | TGI [10] | TGI [11] | TGI [12] | TGI [13] | TGI [14] | TGI [15] | TGI [16] | TGI [17] | TGI [18] | TGI [19] | TGI [20] | TGI [21] | TGI [22] | TGI [23] | TGI [24] | TGI [25] | TGI [26] | TGI [27] | TGI [28] | TGI [29] | TGI [30] | TGI [31] | TGI [32] | TGI [33] | TGI [56] | TGI [34] | TGI [35] | TGI [36] | TGI [37] | TGI [38] | TGI [39] | TGI [40] | TGI [41] | TGI [42] | TGI [43] | TGI [44] | TGI [45] | TGI [46] | TGI [47] | TGI [48] | TGI [49] | TGI [50] | TGI [53] | TGI [54] | TGI [55]
inactive: GI50 [1] > 100 µM | GI50 [2] > 100 µM | GI50 [3] > 100 µM | GI50 [4] 84.5 µM | GI50 [5] > 100 µM | GI50 [6] > 100 µM | GI50 [7] > 100 µM | GI50 [8] 80.2 µM | GI50 [9] > 100 µM | GI50 [10] > 100 µM | GI50 [11] 49.7 µM | GI50 [12] 58.5 µM | GI50 [13] > 100 µM | GI50 [14] > 100 µM | GI50 [15] > 100 µM | GI50 [16] > 100 µM | GI50 [17] > 100 µM | GI50 [18] > 100 µM | GI50 [19] > 100 µM | GI50 [20] > 100 µM | GI50 [21] > 100 µM | GI50 [22] 36.7 µM | GI50 [23] > 100 µM | GI50 [24] 85.8 µM | GI50 [25] > 100 µM | GI50 [26] > 100 µM | GI50 [27] > 100 µM | GI50 [28] > 100 µM | GI50 [29] > 100 µM | GI50 [30] 33.8 µM | GI50 [31] > 100 µM | GI50 [32] > 100 µM | GI50 [33] > 100 µM | GI50 [56] 99.1 µM | GI50 [34] > 100 µM | GI50 [35] > 100 µM | GI50 [36] > 100 µM | GI50 [37] > 100 µM | GI50 [38] > 100 µM | GI50 [39] > 100 µM | GI50 [40] > 100 µM | GI50 [41] 49.9 µM | GI50 [42] > 100 µM | GI50 [43] > 100 µM | GI50 [44] > 100 µM | GI50 [45] > 100 µM | GI50 [46] > 100 µM | GI50 [47] > 100 µM | GI50 [48] > 100 µM | GI50 [49] 73.4 µM | GI50 [50] > 100 µM | GI50 [53] > 100 µM | GI50 [54] > 100 µM | GI50 [55] > 100 µM
